Columns and labels:
[1] = tested on: PI3Kα H1047R mutated cell line T-47D cells; assay: Cell Proliferation Assay (CellTiter-Glo), T-47D; type: cell-based; conditions: for IC50: Homo sapiens, T47D, 72 h, T-47D, 3 days treatment; for Selectivity: SK-BR-3/T-47D (cell proliferation): cell proliferation IC50 ratio
Summary of the method: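 T-47D cells seeded overnight at 3×10^3/well, then exposed 3 days to 9-point 1:3 dilutions, final […] to 1 nM in 0.1% DMSO. CellTiter-Glo luminescence; relative IC50 from percent inhibition versus medium-only and 0.1% DMSO controls, 4-parameter logistic fit.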

WT cell line SK-BR-3 [2] = assay: Cell Proliferation Assay (CellTiter-Glo), SK-BR-3; type: cell-based; conditions: Homo sapiens, 72 h; SK-BR-3, 3 days treatment
Summary of the method: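 SK-BR-3 cells treated for 3 days with compound in a 9-point series, final concentrations 10 M to 1 nM in 0.1% DMSO. Viability read by CellTiter-Glo luminescence. Relative IC50 from percent inhibition versus medium-only and DMSO controls, four-parameter logistic fit.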

WT cell line SK-BR-3 [3] = assay: Phospho-AKT (Ser473) Inhibition Assay (HTRF), SK-BR-3; type: cell-based; conditions: Homo sapiens; SK-BR-3, 1 hour treatment; read-out: p-AKT Inhibition assay (S473) IC50 SK-BR-3
Summary of the method: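 SK-BR-3 (PI3Kα WT) cells seeded overnight in MEM with insulin, then treated 1 h with 11-point 1:3 dilutions (10 μM to 0.1 nM, 0.1% DMSO). Lysates read for phospho-AKT Ser473 by HTRF after 4 h antibody incubation at room temperature. IC50 from 4-parameter fit, % inhibition normalized to DMSO (max) and 10 μM GDC0077 (min).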

[4] = target: PI3Kα (p110[H1047R]/p85) kinase (Homo sapiens, UniProt P42336, H1047R); assay: PI3Kα (p110[H1047R]/p85) kinase ADP-Glo Assay; type: biochemical; conditions: 25 uM ATP; for selectivity: WT/H1047R: ADP-Glo Assay IC50 ratio
PI3Kα (p110[H1047R]/p85) kinase, sequence (P42336 whole entry H1047R): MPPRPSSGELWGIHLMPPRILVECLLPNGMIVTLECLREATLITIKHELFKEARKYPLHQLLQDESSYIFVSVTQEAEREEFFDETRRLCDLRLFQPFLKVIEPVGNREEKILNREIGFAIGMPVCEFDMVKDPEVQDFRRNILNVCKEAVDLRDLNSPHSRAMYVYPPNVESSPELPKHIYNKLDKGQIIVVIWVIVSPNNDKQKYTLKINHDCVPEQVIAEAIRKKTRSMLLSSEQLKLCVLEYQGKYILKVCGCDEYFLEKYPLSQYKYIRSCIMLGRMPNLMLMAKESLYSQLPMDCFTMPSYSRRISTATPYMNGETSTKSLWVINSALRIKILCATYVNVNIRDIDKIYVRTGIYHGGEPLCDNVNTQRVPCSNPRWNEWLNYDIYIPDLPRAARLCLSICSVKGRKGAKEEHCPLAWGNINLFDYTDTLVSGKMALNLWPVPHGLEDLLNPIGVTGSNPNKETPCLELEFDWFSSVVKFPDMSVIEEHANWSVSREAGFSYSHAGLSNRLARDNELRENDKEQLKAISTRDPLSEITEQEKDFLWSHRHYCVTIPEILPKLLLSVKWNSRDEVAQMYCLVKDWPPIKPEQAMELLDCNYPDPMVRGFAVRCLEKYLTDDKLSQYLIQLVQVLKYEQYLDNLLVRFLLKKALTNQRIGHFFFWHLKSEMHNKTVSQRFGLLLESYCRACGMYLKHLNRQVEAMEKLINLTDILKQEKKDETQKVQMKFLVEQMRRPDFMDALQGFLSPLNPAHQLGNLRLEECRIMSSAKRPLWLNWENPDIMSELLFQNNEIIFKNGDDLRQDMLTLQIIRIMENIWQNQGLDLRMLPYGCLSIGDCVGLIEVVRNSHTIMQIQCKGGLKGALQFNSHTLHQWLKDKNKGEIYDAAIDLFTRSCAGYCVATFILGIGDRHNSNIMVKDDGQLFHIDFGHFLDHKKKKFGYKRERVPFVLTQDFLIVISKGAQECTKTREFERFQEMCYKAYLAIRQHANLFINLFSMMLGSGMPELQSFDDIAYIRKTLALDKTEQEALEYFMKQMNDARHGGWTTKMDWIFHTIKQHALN
PI3Kα (p110[H1047R]/p85) kinase, sequence (P27986 whole entry partner): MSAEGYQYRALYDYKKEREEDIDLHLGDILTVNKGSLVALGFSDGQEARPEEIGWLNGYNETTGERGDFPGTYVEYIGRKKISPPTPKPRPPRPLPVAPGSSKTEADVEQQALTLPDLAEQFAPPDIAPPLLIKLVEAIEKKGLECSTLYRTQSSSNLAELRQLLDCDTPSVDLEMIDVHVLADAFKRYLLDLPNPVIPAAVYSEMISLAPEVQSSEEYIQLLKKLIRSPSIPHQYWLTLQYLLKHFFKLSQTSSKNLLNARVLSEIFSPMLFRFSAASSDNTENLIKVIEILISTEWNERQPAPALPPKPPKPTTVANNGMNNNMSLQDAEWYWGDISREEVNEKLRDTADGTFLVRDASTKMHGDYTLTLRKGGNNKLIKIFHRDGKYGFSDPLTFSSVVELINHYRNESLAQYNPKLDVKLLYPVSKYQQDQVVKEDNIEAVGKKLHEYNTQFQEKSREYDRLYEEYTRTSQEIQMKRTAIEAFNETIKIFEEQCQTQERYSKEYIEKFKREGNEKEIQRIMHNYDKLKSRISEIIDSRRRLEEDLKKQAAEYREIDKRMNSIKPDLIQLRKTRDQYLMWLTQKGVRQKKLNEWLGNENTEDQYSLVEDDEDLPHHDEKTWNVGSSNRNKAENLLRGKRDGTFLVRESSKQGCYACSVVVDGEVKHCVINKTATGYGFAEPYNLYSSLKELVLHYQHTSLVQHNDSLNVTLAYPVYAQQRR
Summary of the method: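 ADP-Glo luminescence tracked ADP formed by the mutant p110α(H1047R)/p85 complex during a 120 min room-temperature reaction with 25 µM ATP and 5.35 µg/ml PI(4,5)P2:PS lipid substrate, started after 30 min enzyme–compound–substrate pre-incubation (compound […], 50 mM HEPES pH 7.5). IC50 via four-parameter logistic equation.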

IC50 [1] | IC50 (WT cell line SK-BR-3 [2]) | IC50 (WT cell line SK-BR-3 [3]) | IC50 [4] | selectivity: WT/H1047R [4] | SMILES | Selectivity: SK-BR-3/T-47D (cell proliferation) [1]
> 10000 nM | > 10000 nM | > 10000 nM | 887 nM | >113 | Cc1cc(C(C)Nc2sc3ccccc3c2C(=O)O)c2cc(-c3ccccc3)n(C)c(=O)c2c1 (centres unmarked) [Example 92, 2-((1-(2,7-dimethyl-1-oxo-3-phenyl-1,2-dihydroisoquinolin-5-yl)ethyl)amino)benzo[b]thiophene-3-carboxylic acid] | –
287 nM | > 10000 nM | 4730 nM | 240 nM | 40.9 | Cc1cc(C(C)Nc2ccccc2C(=O)O)c2cc(-c3cnn(C)c3)n(C)c(=O)c2c1 (centres unmarked) [Example 91, 2-((1-(2,7-dimethyl-3-(1-methyl-1H-pyrazol-4-yl)-1-oxo-1,2-dihydroisoquinolin-5-yl)ethyl)amino)benzoic acid] | >35
112 nM | > 10000 nM | > 10000 nM | 443 nM | 8.7 | Cc1cc(C(C)Nc2ccccc2C(=O)O)c2cc(-c3ccc(C#N)cc3)n(C)c(=O)c2c1 (centres unmarked) [Example 4, 2-((1-(3-(4-cyanophenyl)-2,7-dimethyl-1-oxo-1,2-dihydroisoquinolin-5-yl)ethyl)amino)benzoic acid] | >89

Source: patent US20260125346A1, “Isoquinolinone Derivatives and 4H-Quinolizinone Derivatives and Pharmaceutical Compositions Thereof for the Treatment of Disease” (BeOne Medicines I GmbH, priority 2023, published 2026)
